{"source": "patent US11369618B2", "about": "“Compounds, compositions and methods for prevention and/or treatment of cancer” (THE TRUSTEES OF THE UNIVERSITY OF PENNSYLVANIA, priority 2016, dated 2022)", "key": {"[1]": {"system": "murine B16F10 melanoma cells", "experiment": "G-1-pretreated B16F10 cells injected into syngeneic C57BL/6 mice, then αPD-1 antibody or isotype control", "type": "in vivo, mouse", "details": "B16F10 cells pretreated in vitro", "from_the_text": "FIG. 13D: Experimental timeline of vehicle or G-1 pre-treatment of B16F10 cells followed by treatment with either αPD-1 antibody or isotype antibody control (2A3), n=5 per group. FIG. 13E: Tumor volumes of treatment groups at Day 14, * denotes significance One-way ANOVA with Tukey's multiple comparison test. FIG. 13F: Survival curve of mice with tumors pre-treated with vehicle or G-1, followed by isotype antibody control (2A3) or αPD-1 antibody.\nTo determine whether tumor cell intrinsic GPER signaling influences melanoma vulnerability to immune checkpoint therapy, studies were performed, based on the observation that GPER-driven differentiation is long lasting. G-1 was used to activate GPER and drive differentiation in murine B16F10 melanoma cells in vitro (FIG. 13D). Then, equal numbers of vehicle or G-1-treated tumor cells were injected into syngeneic C57BL/6 mice and the animals were treated with either αPD-1 antibody or isotype antibody control."}, "PDAC tumors": {"system": "PDAC tumors", "experiment": "PDAC tumor bearing mice treated with G-1", "type": "in vivo, mouse", "details": "tumors grown 18 days, dosing on 3 consecutive days, follow-up 4 days; 2 independent PDAC cell lines"}, "[2]": {"system": "Melanoma cells engineered to maintain c-Myc protein", "experiment": "c-Myc-transduced WM46 melanoma cells treated with G-1", "type": "cell-based, human", "details": "c-Myc-transduced WM46, 16 hours", "method": "FIG. 12 illustrates the finding that GPER signaling results in loss of c-Myc in melanoma. Panels A-C: Western blots of heMel (Panel A), WM46 (Panel B), and B16F10 (Panel C) melanoma transiently treated with E2 for 3 days, followed by 4 day withdraw. Panel D: Western blot of WM46 cells treated with a specific GPER agonist (G-1) for 16 hours. Panel E: Western blot of luciferase- or c-Myc-transduced WM46 cells treated with G-1 for 16 hours. Panel F: Western blot of WM46 cells treated with G-1 across a time course. Panel G: Western blot of WM46 cells treated with G-1, 100 μM PKA inhibitor Rp-8-Br-cAMPS (PKAi), or both for 1 hour. Panel H: Western blot of WM46 cells treated with G-1, […] proteasome inhibitor (MG132), or both for 1 hour. Panel I: Western blot of WM46 cells treated with 10 μg/ml cyclohexamide (CHX) with and without G-1.\nFurthermore, GPER signaling induced a relative growth arrest, associated with hypophosphorylation of Rb in both mouse and human melanoma cells (FIG. 12, Panel D)."}, "[3]": {"system": "c-Myc and pRB in syngeneic pancreatic ductal adenocarcinoma (PDAC) cell lines", "experiment": "Western blot of PDAC cell lines treated with G-1", "details": "500 nM, 1 hour", "quoted_text": "FIG. 17A: Western blot of c-Myc in several PDAC cell lines treated with 500 nM G-1 for 1 hour.\nUsing a newly available set of syngeneic pancreatic ductal adenocarcinoma (PDAC) cell lines, the effects of GPER activation on the levels of c-Myc protein were examined."}, "[4]": {"system": "Mouse (B16) and human (WM46) melanoma cell lines", "experiment": "tumor formation in mice from melanoma cells pretreated in vitro", "type": "in vivo", "details": "melanoma cells pretreated in vitro, equal numbers injected into mice", "method": "FIG. 11A: Long-term melanin assay in which normal human melanocytes were transiently treated with progesterone (P4), or estrogen (E2). Subsets of these groups (Red) were treated with an additional transient pulse of P4 at Day 27. Error bars equal the standard deviation of the samples. FIG. 11B: Western blot of melanocyte differentiation markers after a transient, 4-day treatment with either vehicle or estrogen, followed by an 8 day withdraw period. FIG. 11C: Experimental timeline of estrogen or GPER agonist (G-1) pre-treatment of mouse and human melanoma cells, n=5 per group. FIG. 11D: Relative tumor weights of mouse and human melanomas pre-treated with estrogen, * denotes significance by the Mann-Whitney test. FIG. 11E: Relative tumor weights of mouse and human melanomas pre-treated with G-1, * denotes significance by the Mann-Whitney test.\nMouse (B16) and human (WM46) cell lines were pretreated with estrogen, G-1, or vehicle in vitro for one week then injected in equal numbers in to the left (vehicle-treated) or right (E2-treated) flank of mice, inducing tumor formation (N=5 mice per group) (FIG. 5). 14-16 days later, mice were imaged and tumors were harvested and weighed.\nTo test whether transient GPER signaling induces a persistent differentiation state in melanoma cells that affects subsequent tumor growth in vivo, melanoma cells were treated with estrogen, G-1, or vehicle in vitro, and subsequently injected equal numbers of treated cells into host mice (FIG. 11C)."}, "[5]": {"system": "pRB, c-myc and GPER in WM46 melanoma cells", "experiment": "Western blot of WM46 melanoma cells treated with increasing doses of G-1", "type": "cell-based, human", "details": "WM46, increasing concentrations"}, "B16F10 melanoma": {"system": "B16F10 melanoma", "experiment": "B16F10 melanoma-bearing syngeneic mice treated with subcutaneous G-1, αPD-1 antibody, or both", "type": "in vivo", "text": "(§1) FIGS. 14A-14F illustrate the finding that treatment of melanoma bearing mice with G-1 and αPD-1 immunotherapy dramatically extends survival. FIG. 14A: Experimental timeline of B16F10 bearing mice treated with vehicle or G-1, as well as αPD-1 antibody or isotype antibody control (2A3), n=10 per group. FIG. 14B: Tumor volumes of treatment groups at Day 14, * denotes significance One-way ANOVA with Tukey's multiple comparison test. FIG. 14C: Survival curve of mice treated with vehicle or G-1, as well as isotype antibody control (2A3) or αPD-1 antibody. FIG. 14D: Experimental outline of YUMM1.7 bearing mice treated with vehicle or G-1, as well as isotype antibody control (2A3) or αPD-1 antibody. Treatment was started at day 14 after tumors reached 4-5 mm in diameter. n=5 per group. FIG. 14E: Tumor volumes over time of treatment groups. FIG. 14F: Survival curve of mice treated with vehicle or G-1, as well as αPD-1 antibody or isotype antibody control (2A3).\nTo determine whether G-1 has therapeutic utility as a systemically delivered agent with or without immune checkpoint inhibitors, B16F10 melanoma-bearing syngeneic mice were treated with subcutaneous G-1, αPD-1 antibody, or both, and survival compared to matched mice treated with vehicle and isotype antibody controls (in particular, non-specific isotype control antibody 2A3) (FIG. 14A). Total tumor volume was assessed after 5-50 days."}, "PDAC cell lines": {"system": "PDAC cell lines", "experiment": "proliferation assay of PDAC cell lines treated with G-1", "type": "cell-based", "details": "500 nM over 5 days"}, "[6]": {"system": "YUMM 1.7 cells (BRafV600E/wt Pten−/−Cdkn2−/−)", "experiment": "YUMM 1.7 melanoma in C57BL/6 mice treated with G-1 with and without αPD-1", "type": "in vivo, mouse", "details": "YUMM 1.7, treatment initiated at day 14", "text": "as §1\nAlthough B16F10 melanoma is the most commonly used model for melanoma immunology studies, and experimental results have largely translated to humans, B16F10 lacks the BRaf or NRas oncodriver mutations present in most human melanomas. […]"}}, "note": "“Also recorded” adds a separate entry of the source.", "data": [{"compound": "CC(=O)c1ccc2c(c1)[C@@H]1C=CC[C@@H]1[C@H](c1cc3c(cc1Br)OCO3)N2", "note": "(relative stereo) [Compound G-1, rel-1-[4-(6-bromo-1,3-benzodioxol-5-yl)-3aR,4S,5,9bS-tetrahydro-3H-cyclopenta[c]quinolin-8-yl]-ethanone]", "values": [{"measurement": "subsequent tumor growth", "setting": "[1]", "result": "inhibited subsequent tumor growth"}, {"measurement": "survival", "setting": "[1]", "result": "extended survival compared to controls"}, {"measurement": "tumor size (tumor weights)", "setting": "PDAC tumors", "result": "significantly smaller"}, {"measurement": "response of cells engineered to maintain c-Myc protein", "setting": "[2]", "result": "resistant"}, {"measurement": "c-Myc", "setting": "[3]", "result": "reduced"}, {"measurement": "pRB", "setting": "[3]", "result": "reduced"}, {"measurement": "tumor growth / tumor size from pretreated cells", "setting": "[4]", "result": "formed significantly smaller tumors; also recorded: markedly reduced subsequent tumor size"}, {"measurement": "GPER expression", "setting": "[5]", "result": "elevation"}, {"measurement": "c-myc levels", "setting": "[5]", "result": "reduction"}, {"measurement": "pRB levels", "setting": "[5]", "result": "reduction"}, {"measurement": "tumor growth", "setting": "B16F10 melanoma; B16F10-bearing mice", "result": "slowed tumor growth"}, {"measurement": "survival", "setting": "B16F10 melanoma; B16F10-bearing mice, subcutaneous G-1", "result": "extended survival to the same extent as αPD-1"}, {"measurement": "tolerability", "setting": "B16F10 melanoma; mice", "result": "well tolerated"}, {"measurement": "proliferation rates", "setting": "PDAC cell lines", "result": "inhibited"}, {"measurement": "survival", "setting": "[6]", "result": "modest, but significant, survival increases"}]}]}
